# According to ChEMBL document CHEMBL3994618, “The long story of camptothecin: From traditional medicine to drugs” (Bioorg Med Chem Lett, 2017):
# Test: Drug excretion in human urine upto 24 hrs
# Format: ADME
# Conditions: read-out: Drug excretion
smiles,measurement,value
CC[C@@]1(O)C(=O)OCc2c1cc1n(c2=O)Cc2cc3c(CN(C)C)c(O)ccc3nc2-1 [TOPOTECAN],dose excreted at 24 h,40%
